Assay results: patent EP4610267A1, “CYCLIC DINUCLEOTIDES AND CONJUGATES THEREOF WITH ANTIBODIES” (priority 2024, dated 2025)
pEC50: −log10 of the molar value.

How the values were obtained:
STING WT = biological target: T1, STING WT (Homo sapiens, UniProt Q86WV6, H232R); test: 293T STING digitonin reporter assay (WT haplotype); type: cell-based; conditions: digitonin permeabilised 293T reporter cells
T1 construct: expressed in transfected cells
Protocol: (§1) Digitonin Assay with 293T Reporter Cells. The generation of 293T reporter cells stably expressing different STING protein haplotypes (WT, HAQ, REF, AQ, or Q) was described previously (Novotna et al, J. Med. Chem. 2019,62, 10676). The cells were seeded at a density of 250 000 cells per cm^2 into 96 well white poly(D-lysine) coated plates in 100 µL of DMEM with high glucose supplemented with 10% heat inactivated FBS. Next day, the medium was removed, and compounds were added in 3-fold serial dilutions in a digitonin buffer containing 50 mM HEPES (pH 7.0), 100 mM KCl, 3 mM MgClz, 0.1 mM DTT, 85 mM sucrose, 0.2% (w/w) BSA, 1 mM ATP, 0.1 mM GTP, and 10 µg/mL digitonin A. After 30 min incubation at 37 °C with 5% CO2, the digitonin buffer was removed, cells were washed once with 100 µL of the cultivation medium, and 100 µL of fresh medium was added to each well. The plates with cells were further incubated for 5 h at 37 °C with 5% CO2. Thereafter, 50 µL of the medium was removed, and 30 µL of Bright-Glo Luciferase Assay System reagent was added to each well. […] Nonlinear regression curve fit with standard slope was used for EC50 value calculations. The EC50 value represents CDN concentration that gives half-maximal response of firefly luciferase in the 293T reporter assay.

STING HAQ = biological target: T2, STING HAQ (Homo sapiens, UniProt Q86WV6, G230A/H232R/R293Q/R71H); test: 293T STING digitonin reporter assay (HAQ haplotype); type: cell-based; conditions: digitonin permeabilised 293T reporter cells
T2 construct: expressed in transfected cells
T2 sequence (Q86WV6 whole entry R71H/G230A/H232R/R293Q): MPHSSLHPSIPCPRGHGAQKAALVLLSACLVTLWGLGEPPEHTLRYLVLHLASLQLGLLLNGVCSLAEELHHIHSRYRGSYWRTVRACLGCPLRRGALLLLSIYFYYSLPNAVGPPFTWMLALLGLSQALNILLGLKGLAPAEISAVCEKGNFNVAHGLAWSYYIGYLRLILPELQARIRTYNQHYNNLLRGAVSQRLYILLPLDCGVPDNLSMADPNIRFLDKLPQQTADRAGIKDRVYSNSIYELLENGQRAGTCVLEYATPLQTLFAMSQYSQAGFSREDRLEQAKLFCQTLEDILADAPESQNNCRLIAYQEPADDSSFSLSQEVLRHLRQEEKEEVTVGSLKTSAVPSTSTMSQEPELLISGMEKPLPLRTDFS
Protocol: as §1

T1 sequence (Q86WV6 whole entry H232R): as the sequence (Q86WV6 whole entry R71H/G230A/H232R/R293Q) above, with H71R, A230G, Q293R counted along it

Nc1ncnc2c1ncn2[C@@H]1O[C@@H]2OCP(=O)(S)O[C@@H]3[C@H](F)[C@@H](COP(=O)(S)OC[C@H]2[C@H]1F)O[C@H]3n1cnc2c(=O)[nH]cnc21 (single isomer, unassigned) [Compound 2.2]
pEC50 (STING WT): 7.70 | pEC50 (STING HAQ): 7.70
